Results: PMC9516332 (Frontiers in Oncology, 2022)

Assays:
Test in all cases: Kinase panel profiling at 1 µmol/L (MSA or IMAP), percentage inhibition
Type in all cases: biochemical
[1] = molecular target: panel of 255 wild-type kinases (Homo sapiens, UniProt P11362); details: kinase FGFR1; 1 µmol/L single concentration; read-out: %-inhibition at 1 µmol/L, FGFR1
[2] = molecular target: panel of 255 wild-type kinases (Homo sapiens, UniProt Q15375); details: kinase EPHA7; 1 µmol/L single concentration; read-out: %-inhibition at 1 µmol/L, EPHA7
[3] = molecular target: panel of 255 wild-type kinases (Homo sapiens, UniProt P06241); details: kinase FYN [isoform a]; 1 µmol/L single concentration; read-out: %-inhibition at 1 µmol/L, FYN [isoform a]
[4] = molecular target: panel of 255 wild-type kinases (Homo sapiens, UniProt Q96SB4); details: kinase SRPK1; 1 µmol/L single concentration; read-out: %-inhibition at 1 µmol/L, SRPK1
[5] = molecular target: panel of 255 wild-type kinases (Homo sapiens, UniProt P49840); details: kinase GSK3α; 1 µmol/L single concentration; read-out: %-inhibition at 1 µmol/L, GSK3α
[6] = molecular target: panel of 255 wild-type kinases (Homo sapiens, UniProt Q9P286); details: PAK5; 1 µmol/L single concentration; read-out: %-inhibition, PAK5
[7] = molecular target: panel of 255 wild-type kinases (Homo sapiens, UniProt Q04912); details: kinase RON; 1 µmol/L single concentration; read-out: %-inhibition at 1 µmol/L, RON
[8] = molecular target: panel of 255 wild-type kinases (Homo sapiens, UniProt Q00534); details: CDK6/CycD3 kinase assay; 1 µmol/L single concentration; read-out: %-inhibition CDK6/CycD3
[9] = molecular target: panel of 255 wild-type kinases (Homo sapiens, UniProt P49761); details: kinase CLK3; 1 µmol/L single concentration; read-out: %-inhibition at 1 µmol/L, CLK3
[10] = molecular target: T1, panel of 255 wild-type kinases (Homo sapiens, UniProt Q9UQB9); details: AurC kinase assay; 1 µmol/L single concentration; read-out: %-inhibition AurC
T1 sequence (Q9UQB9 1-309): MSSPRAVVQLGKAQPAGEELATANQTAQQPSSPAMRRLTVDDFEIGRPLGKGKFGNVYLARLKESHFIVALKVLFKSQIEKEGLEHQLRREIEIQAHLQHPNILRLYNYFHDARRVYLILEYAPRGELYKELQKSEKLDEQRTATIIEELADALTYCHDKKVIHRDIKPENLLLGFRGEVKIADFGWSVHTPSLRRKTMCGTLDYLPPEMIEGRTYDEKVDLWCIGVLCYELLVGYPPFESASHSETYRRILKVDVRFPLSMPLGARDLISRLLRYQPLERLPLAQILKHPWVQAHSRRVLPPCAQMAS

[11] = molecular target: panel of 255 wild-type kinases (Homo sapiens, UniProt O43683); details: BUB1/BUB3 kinase assay; 1 µmol/L single concentration; read-out: %-inhibition BUB1/BUB3
[12] = molecular target: panel of 255 wild-type kinases (Homo sapiens, UniProt Q8TDX7); details: NEK7; 1 µmol/L single concentration; read-out: %-inhibition, NEK7
[13] = molecular target: panel of 255 wild-type kinases (Homo sapiens, UniProt P04626); details: kinase HER2; 1 µmol/L single concentration; read-out: %-inhibition at 1 µmol/L, HER2
[14] = molecular target: panel of 255 wild-type kinases (Homo sapiens, UniProt Q14680); details: MELK; 1 µmol/L single concentration; read-out: %-inhibition, MELK
[15] = molecular target: panel of 255 wild-type kinases (Homo sapiens, UniProt Q8N568); details: kinase DCAMKL2; 1 µmol/L single concentration; read-out: %-inhibition at 1 µmol/L, DCAMKL2
[16] = molecular target: panel of 255 wild-type kinases (Homo sapiens, UniProt P06239); details: kinase LCK; 1 µmol/L single concentration; read-out: %-inhibition at 1 µmol/L, LCK
[17] = molecular target: panel of 255 wild-type kinases (Homo sapiens, UniProt Q08345); details: kinase DDR1; 1 µmol/L single concentration; read-out: %-inhibition at 1 µmol/L, DDR1
[18] = molecular target: panel of 255 wild-type kinases (Homo sapiens, UniProt O75676); details: MSK2; 1 µmol/L single concentration; read-out: %-inhibition, MSK2
[19] = molecular target: panel of 255 wild-type kinases (Homo sapiens, UniProt Q9UK32); details: kinase RSK4; 1 µmol/L single concentration; read-out: %-inhibition at 1 µmol/L, RSK4
[20] = molecular target: panel of 255 wild-type kinases (Homo sapiens, UniProt O96017); details: CHK2 kinase assay; 1 µmol/L single concentration; read-out: %-inhibition CHK2
[21] = molecular target: panel of 255 wild-type kinases (Homo sapiens, UniProt P22455); details: kinase FGFR4; 1 µmol/L single concentration; read-out: %-inhibition at 1 µmol/L, FGFR4
[22] = molecular target: panel of 255 wild-type kinases (Homo sapiens, UniProt P27361); details: kinase Erk1; 1 µmol/L single concentration; read-out: %-inhibition at 1 µmol/L, Erk1
[23] = molecular target: panel of 255 wild-type kinases (Homo sapiens, UniProt P48730); details: kinase CK1δ; 1 µmol/L single concentration; read-out: %-inhibition at 1 µmol/L, CK1δ

SMILES | inhibition at 1 µM [1] | inhibition at 1 µM [2] | inhibition at 1 µM [3] | inhibition at 1 µM [4] | inhibition at 1 µM [5] | inhibition at 1 µM [6] | inhibition at 1 µM [7] | inhibition at 1 µM [8] | inhibition at 1 µM [9] | inhibition at 1 µM [10] | inhibition at 1 µM [11] | inhibition at 1 µM [12] | inhibition at 1 µM [13] | inhibition at 1 µM [14] | inhibition at 1 µM [15] | inhibition at 1 µM [16] | inhibition at 1 µM [18] | inhibition at 1 µM [20] | inhibition at 1 µM [22] | inhibition at 1 µM [23] | further results
COC(=O)N[C@@H](C)CNc1nccc(-c2cn(C(C)C)nc2-c2cc(Cl)cc(NS(C)(=O)=O)c2F)n1 [encorafenib] | 4.27% | 5% | 6% | -5% | 55% | 0.399% | -1.42% | 6% | 4.44% | -10% | 6% | 5% | 4.47% | 4.48% | -12% | 1.39% | -4% | 7% | -0.942% | 20% | inhibition at 1 µM [17]: 0.442%; inhibition at 1 µM [19]: 4.58%; inhibition at 1 µM [21]: 4.23%
CCN1CCN(c2ccc(Nc3cc(N(C)C(=O)Nc4c(Cl)c(OC)cc(OC)c4Cl)ncn3)cc2)CC1 [infigratinib] | 100% | -4% | 40% | -0.85% | -1.67% | 2.49% | 0.707% | 17% | 12% | -7.58% | -1.66% | -3.65% | 4.73% | -2% | 4.25% | 91% | -0.703% | -0.482% | -4% | -4.4% | inhibition at 1 µM [17]: 96%; inhibition at 1 µM [19]: 7%
CN1CCN(c2ccc(C(=O)Nc3n[nH]c4ccc(Cc5cc(F)cc(F)c5)cc34)c(NC3CCOCC3)c2)CC1 [entrectinib] | 90% | 44% | 96% | 2.16% | -0.424% | 25% | 33% | 1.6% | 3.46% | 67% | -5.38% | -1.81% | 22% | – | 16% | – | 2.7% | 31% | -0.529% | -5% | inhibition at 1 µM [17]: 99%; inhibition at 1 µM [21]: 38%
C[C@H]1Oc2cc(cnc2N)-c2c(nn(C)c2C#N)CN(C)C(=O)c2ccc(F)cc21 [lorlatinib] | 3.43% | 56% | 15% | 5.65% | -2.36% | 11% | 11% | 2.65% | 0.641% | 19% | -5% | 1.44% | 21% | 4% | 74% | 24% | -3.24% | 41% | 3% | -6.46% | inhibition at 1 µM [19]: -2%; inhibition at 1 µM [21]: 20%
CCN1C(=O)N(c2c(F)c(OC)cc(OC)c2F)Cc2cnc3[nH]c(CN4CCOCC4)cc3c21 [pemigatinib] | – | -0.619% | 9% | -12% | -5.3% | 2.26% | 4.48% | 48% | -1% | 5% | -3.37% | 3% | -4% | 0.738% | 27% | 17% | -3.61% | 3% | -8.52% | -4.55% | inhibition at 1 µM [17]: 41%; inhibition at 1 µM [19]: -7%; inhibition at 1 µM [21]: 100%
C=CC(=O)N1CCC([C@@H]2CCNc3c(C(N)=O)c(-c4ccc(Oc5ccccc5)cc4)nn32)CC1 [zanubrutinib] | 4.53% | 0.758% | – | -6% | -7% | 0.606% | 5% | 3.49% | -3.73% | -0.855% | -6% | 2% | 69% | -0.631% | 0.323% | 67% | -4% | 4% | -9% | -4% | inhibition at 1 µM [17]: 3%; inhibition at 1 µM [19]: -6%; inhibition at 1 µM [21]: 7.51%
Cn1cc(-c2cc3c(N4CCN(c5ncc([C@@](C)(N)c6ccc(F)cc6)cn5)CC4)ncnn3c2)cn1 [avapritinib] | 41% | 13% | 57% | -12% | 3% | 4.51% | 48% | -0.371% | 3.76% | 14% | 4% | -11% | 12% | 9% | 3.65% | 92% | 5% | 5.47% | -1.84% | 11% | inhibition at 1 µM [19]: 7.6%; inhibition at 1 µM [21]: 41%
